Assay results taken from patent US12617813B2, “Glycosylated histone deacetylase inhibitors and methods of making and using the same” (Georgia Tech Research Corporation, priority 2020, dated 2026).

Legend:
Hep-G2 cell line = assay: Apoptosis via caspase 3 activation (Western blot) in Hep-G2; format: cell-based; settings: Hep-G2, 18 h; STR compounds 10 and 20 μM, SAHA 5 μM (FIG. 2)
Method: Actin was used to control for protein loading. Cells were treated with DMSO or 0.1% DMSO solution of SAHA (5 μM), STR-V-53 (10 and 20 μM), or STR-I-195 (10 and 20 μM) for 18 h. (a) Cropped gel image showing upregulation on cleaved caspase 3 (clv-caspase 3) relative to the DMSO control. (b) Quantification of relative levels of clv-caspase 3. (Bars show mean plus standard deviation; *P<0.0332; **P<0.0021; ***P<0.0002; ****P<[…]).

HDAC1 = HDAC1 (Homo sapiens, UniProt Q13547); assay: HDAC inhibition, HDAC1; format: biochemical
Chain of HDAC1 (Q13547 whole entry): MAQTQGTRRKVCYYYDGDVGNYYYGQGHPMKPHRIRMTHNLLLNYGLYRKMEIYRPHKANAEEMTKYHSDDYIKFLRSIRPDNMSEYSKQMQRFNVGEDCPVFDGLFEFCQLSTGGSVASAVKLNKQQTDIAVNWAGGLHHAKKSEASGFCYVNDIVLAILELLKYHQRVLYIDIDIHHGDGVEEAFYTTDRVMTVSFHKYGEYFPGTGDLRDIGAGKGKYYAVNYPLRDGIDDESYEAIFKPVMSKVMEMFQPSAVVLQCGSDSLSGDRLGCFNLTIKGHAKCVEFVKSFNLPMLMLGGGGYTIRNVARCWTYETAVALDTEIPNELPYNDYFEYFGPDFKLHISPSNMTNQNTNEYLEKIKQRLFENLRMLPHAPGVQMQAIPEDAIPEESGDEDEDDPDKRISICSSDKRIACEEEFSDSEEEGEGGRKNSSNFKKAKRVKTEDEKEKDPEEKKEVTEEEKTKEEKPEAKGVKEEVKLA

HDAC6 = biological target: T1, HDAC6 (Homo sapiens, UniProt Q9UBN7); assay: HDAC inhibition, HDAC6; format: biochemical
T1 sequence (Q9UBN7 1-1215): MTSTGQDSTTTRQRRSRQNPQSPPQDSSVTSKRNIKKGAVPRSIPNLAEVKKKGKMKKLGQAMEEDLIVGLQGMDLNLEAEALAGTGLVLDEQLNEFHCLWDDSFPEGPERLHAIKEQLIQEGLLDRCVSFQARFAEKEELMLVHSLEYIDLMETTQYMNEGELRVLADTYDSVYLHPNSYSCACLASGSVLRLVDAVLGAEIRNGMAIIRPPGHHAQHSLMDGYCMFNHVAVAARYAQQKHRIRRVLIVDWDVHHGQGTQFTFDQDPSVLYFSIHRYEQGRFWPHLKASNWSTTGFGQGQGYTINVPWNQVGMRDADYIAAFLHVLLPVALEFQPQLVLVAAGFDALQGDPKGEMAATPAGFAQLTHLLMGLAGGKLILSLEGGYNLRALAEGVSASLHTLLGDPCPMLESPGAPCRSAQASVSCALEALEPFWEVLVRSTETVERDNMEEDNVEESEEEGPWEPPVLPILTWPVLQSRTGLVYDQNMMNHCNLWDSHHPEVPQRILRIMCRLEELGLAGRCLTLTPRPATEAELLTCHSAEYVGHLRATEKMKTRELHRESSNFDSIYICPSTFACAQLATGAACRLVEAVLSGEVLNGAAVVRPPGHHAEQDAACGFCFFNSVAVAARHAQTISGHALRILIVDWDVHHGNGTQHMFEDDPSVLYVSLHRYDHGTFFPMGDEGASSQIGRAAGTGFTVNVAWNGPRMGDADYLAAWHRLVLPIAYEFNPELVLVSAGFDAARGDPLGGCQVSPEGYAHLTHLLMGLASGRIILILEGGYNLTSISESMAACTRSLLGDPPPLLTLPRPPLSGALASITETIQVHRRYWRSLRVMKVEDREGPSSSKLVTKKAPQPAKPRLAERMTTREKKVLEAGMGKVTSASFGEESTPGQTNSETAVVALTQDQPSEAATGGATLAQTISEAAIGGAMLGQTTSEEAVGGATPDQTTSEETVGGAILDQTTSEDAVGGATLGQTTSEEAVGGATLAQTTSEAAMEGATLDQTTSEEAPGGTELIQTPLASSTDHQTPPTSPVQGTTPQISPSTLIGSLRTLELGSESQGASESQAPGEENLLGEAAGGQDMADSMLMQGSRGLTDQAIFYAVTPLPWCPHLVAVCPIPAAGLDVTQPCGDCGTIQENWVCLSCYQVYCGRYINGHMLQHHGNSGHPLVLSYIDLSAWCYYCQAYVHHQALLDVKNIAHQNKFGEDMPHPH

HDAC2 = HDAC2 (Homo sapiens, UniProt Q92769); assay: HDAC inhibition, HDAC2; format: biochemical
Chain of HDAC2 (Q92769 whole entry): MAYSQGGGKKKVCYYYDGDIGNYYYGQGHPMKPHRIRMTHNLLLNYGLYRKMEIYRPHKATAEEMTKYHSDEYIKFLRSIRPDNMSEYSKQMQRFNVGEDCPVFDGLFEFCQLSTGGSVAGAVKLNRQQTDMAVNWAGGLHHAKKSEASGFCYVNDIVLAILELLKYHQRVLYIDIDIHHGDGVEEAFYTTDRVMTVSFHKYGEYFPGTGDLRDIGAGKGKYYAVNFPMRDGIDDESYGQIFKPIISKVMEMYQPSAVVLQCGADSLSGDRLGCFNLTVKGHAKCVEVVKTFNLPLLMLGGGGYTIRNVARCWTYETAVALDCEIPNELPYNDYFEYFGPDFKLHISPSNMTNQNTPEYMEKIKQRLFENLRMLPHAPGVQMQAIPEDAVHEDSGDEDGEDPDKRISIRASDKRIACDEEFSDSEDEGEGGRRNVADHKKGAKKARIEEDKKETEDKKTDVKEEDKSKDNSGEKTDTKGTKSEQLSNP

[1] = system: acetylated tubulin and histone H4; assay: Western blot of on-target effect (HDAC inhibition) in Hep-G2 cells; format: cell-based; settings: Hep-G2, 1.25 and 2.5 μM, 5 h, Western blot (FIG. 1)
Method: SAHA was used as positive control while GAPDH was used to control for protein loading. (1a) Hep-G2 treated with DMSO or 0.1% DMSO solution of SAHA (1.25 μM), STR-V-114 (1.25 μM, 2.5 μM) and STR-V-53 (1.25 μM, 2.5 μM). (1b) Hep-G2 treated with DMSO or 0.1% DMSO solution of SAHA (0.5 μM, 1.25 μM) and STR-I-195 (1.25 μM, 2.5 μM). Cell were treated for 5 h before lysis. Quantifications of gel bands are shown below each gel.

Vero cell line = assay: Apoptosis via caspase 3 activation (Western blot) in Vero; format: cell-based; settings: Vero (non-transformed model), 18 h; STR compounds 10 and 20 μM, SAHA 5 μM (FIG. 3)
Method: Actin was used to control for protein loading. Cells were treated with DMSO or 0.1% DMSO solution of SAHA (5 μM), STR-V-53 (10 and 20 μM), or STR-I-195 (10 and 20 μM) for 18 h. Quantification of gel bands are shown below the gel.

HDAC8 = biological target: T2, HDAC8 (Homo sapiens, UniProt Q9BY41); assay: HDAC inhibition, HDAC8; format: biochemical
T2 sequence (Q9BY41 1-377): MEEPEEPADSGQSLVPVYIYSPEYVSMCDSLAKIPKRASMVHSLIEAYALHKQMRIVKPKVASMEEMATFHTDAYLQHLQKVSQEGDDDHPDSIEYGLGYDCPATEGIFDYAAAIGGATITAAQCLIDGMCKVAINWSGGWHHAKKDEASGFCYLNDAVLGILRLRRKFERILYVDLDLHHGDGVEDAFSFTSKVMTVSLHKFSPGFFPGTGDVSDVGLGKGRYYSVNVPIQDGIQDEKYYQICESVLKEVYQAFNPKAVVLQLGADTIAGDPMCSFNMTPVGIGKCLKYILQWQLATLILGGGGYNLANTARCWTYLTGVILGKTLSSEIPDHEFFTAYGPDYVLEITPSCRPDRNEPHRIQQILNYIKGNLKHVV

Hep-G2 [2] = assay: Cytotoxicity with GLUT2 blockage by Phloretin in Hep-G2; format: cell-based; settings: Hep-G2 treated with Phloretin 24 h prior to incubation (FIG. 5)
Method: Hep-G2 and VERO were treated with Phloretin (Ph) for 24 h prior to incubation with STR-V-53 or SAHA. (a) Hep-G2 treated by STR-V-53 with or without Ph. (b) Hep-G2 treated by SAHA with or without Ph. (c) VERO treated by STR-V-53 with or without Ph. (d) VERO treated with SAHA with or without Ph.

Hep-G2 [3] = assay: Cell cycle analysis in Hep-G2; format: cell-based; settings: Hep-G2, 15 μM, 48 h (FIG. 4)
Method: Hep-G2 was cultured in all) cm petri dish until 80% confluence. The cell was serum starved overnight before drug treatment. Subsequently, cells were treated with 10 mL of 0.1% DMSO medium, 0.1% DMSO solution of SAHA (5 μM) or STR-V-53 (15 μM), respectively for 48 h. (a) The control group of Hep-G2 (1); SAHA (5 μM) treated group (2); and STR-V-53 (15 μM) treated group (3). […] (b) Cell distribution in each stage. (c) Analysis of the percentage cell population in cell cycle stages.

SMILES	apoptosis via caspase 3 activation (clv-caspase 3) (Hep-G2 cell line)	IC50 (HDAC1)	IC50 (HDAC6)	IC50 (HDAC2)	on-target effect (HDAC inhibition): acetylated tubulin and histone H4 levels [1]	apoptosis (clv-caspase 3) (Vero cell line)	IC50 (HDAC8)	effect of GLUT2 blockage on cytotoxicity (Hep-G2 [2])	effect on cell cycle (Hep-G2 [3])
O=C(CCCCCCn1cc(-c2ccc(OC3O[C@H](CO)[C@@H](O)[C@H](O)C3O)cc2)nn1)NO (stereo in doubt) [STR-I-195, N-hydroxy-7-(4-(4-(((2S,3R,4S,5S,6R)-3,4,5-trihydroxy-6-(hydroxymethyl)-tetrahydro-2H-pyran-2-yl)oxy)phenyl)-1H-1,2,3-triazol-1-yl)heptanamide]	induced apoptosis	14.6 nM	2.51 nM	29.1 nM	upregulation of acetylated tubulin and histone H4	did not induce apoptosis	464 nM		
O=C(CCCCCCC(=O)Nc1ccccc1)NO [SAHA, reference compound]	induced apoptosis					induced apoptosis			
O=C(CCCCCCn1cc(-c2ccc(O[C@H]3O[C@H](CO)[C@@H](O)[C@H](O)[C@H]3O)cc2)nn1)NO [STR-V-53]	induced apoptosis	24.3 nM	3.43 nM	60.1 nM	upregulation of acetylated tubulin and histone H4	did not induce apoptosis	843 nM	attenuates the cytotoxicity	cell cycle arrest
O=C(CCCCCCn1cc(-c2ccc3cc(O[C@H]4O[C@H](CO)[C@@H](O)[C@H](O)[C@H]4O)ccc3c2)nn1)NO [STR-V-114, N-hydroxy-7-(4-(6-(((2R,3R,4S,5S,6R)-3,4,5-trihydroxy-6-(hydroxymethyl)-tetrahydro-211-pyran-2-yl)oxy)naphthalen-2-yl)-1H-1,2,3-triazol-1-yl)heptanamide]		20.3 nM	4.5 nM	61.5 nM	upregulation of acetylated tubulin and histone H4		2130 nM		
